# From the supplement of paper PMC10307832
# Columns and labels:
# Assay in all cases: relative viability (nuclei count vs DMSO), 5 days (fraction); higher = more cells survive
# [1] = compound: CN(C)CC1=CC(=CC=C1)N=C(C2=CC=CC=C2)C3=C(NC4=C3C=CC(=C4)C(=O)N(C)C)O + CS(=O)(=O)N1CCN(Cc2cc3nc(-c4cccc5[nH]ncc45)nc(N4CCOCC4)c3s2)CC1 [Pictilisib] (partner 1 µM)
# Procedure, shortened: (§1)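 Lung cancer cell lines were pin-tool dosed in 1536-well plates on the day after seeding, with either a lone drug or a fixed anchor-drug dose plus five library-drug doses (not always all listed) in √10 steps. Nuclei were counted on 4× images after 5 days. Relative viability is the ratio of treated-well to vehicle-well nuclei counts, with each value a median of duplicate plates.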
# [2] = compound: CN(C)CC1=CC(=CC=C1)N=C(C2=CC=CC=C2)C3=C(NC4=C3C=CC(=C4)C(=O)N(C)C)O + CC1(C)CCC(c2ccc(Cl)cc2)=C(CN2CCN(c3ccc(C(=O)NS(=O)(=O)c4ccc(N[C@H](CCN5CCOCC5)CSc5ccccc5)c(S(=O)(=O)C(F)(F)F)c4)cc3)CC2)C1 [Navitoclax] (partner 0.5 µM)
# Procedure, shortened: as §1
# [3] = compound: CN(C)CC1=CC(=CC=C1)N=C(C2=CC=CC=C2)C3=C(NC4=C3C=CC(=C4)C(=O)N(C)C)O + CC(C)C[C@H](NC(=O)[C@H](Cc1ccccc1)NC(=O)c1cnccn1)B(O)O [Bortezomib] (partner 0.002 µM)
# Procedure, shortened: as §1
# [4] = compound: CN(C)CC1=CC(=CC=C1)N=C(C2=CC=CC=C2)C3=C(NC4=C3C=CC(=C4)C(=O)N(C)C)O + C[C@]1(O)C[C@@H](c2nc(-c3ccc4ccc(-c5ccccc5)nc4c3)c3c(N)nccn32)C1 [Linsitinib] (partner 1 µM)
# Procedure, shortened: as §1
# [5] = compound: CN(C)CC1=CC(=CC=C1)N=C(C2=CC=CC=C2)C3=C(NC4=C3C=CC(=C4)C(=O)N(C)C)O + O=C(c1cc(Cc2n[nH]c(=O)c3ccccc23)ccc1F)N1CCN(C(=O)C2CC2)CC1 [Olaparib] (partner 8 µM)
# Procedure, shortened: as §1
# [6] = compound: CN(C)CC1=CC(=CC=C1)N=C(C2=CC=CC=C2)C3=C(NC4=C3C=CC(=C4)C(=O)N(C)C)O + C[C@@H](Oc1cc(-c2cnn(C3CCNCC3)c2)cnc1N)c1c(Cl)ccc(F)c1Cl [Crizotinib] (partner 1 µM)
# Procedure, shortened: as §1
# [7] = compound: CN(C)CC1=CC(=CC=C1)N=C(C2=CC=CC=C2)C3=C(NC4=C3C=CC(=C4)C(=O)N(C)C)O + COc1cc2c(Oc3ccc(NC(=O)C4(C(=O)Nc5ccc(F)cc5)CC4)cc3F)ccnc2cc1OCCCN1CCOCC1 [Foretinib] (partner 0.25 µM)
# Procedure, shortened: as §1
# [8] = compound: CN(C)CC1=CC(=CC=C1)N=C(C2=CC=CC=C2)C3=C(NC4=C3C=CC(=C4)C(=O)N(C)C)O + Cc1nc(NC(=O)N2CCC[C@H]2C(N)=O)sc1-c1ccnc(C(C)(C)C(F)(F)F)c1 [Alpelisib] (partner 2 µM)
# Procedure, shortened: as §1
# [9] = compound: CN(C)CC1=CC(=CC=C1)N=C(C2=CC=CC=C2)C3=C(NC4=C3C=CC(=C4)C(=O)N(C)C)O + CS(=O)(=O)CCNCc1ccc(-c2ccc3ncnc(Nc4ccc(OCc5cccc(F)c5)c(Cl)c4)c3c2)o1 [Lapatinib] (partner 2 µM)
# Procedure, shortened: as §1
# [10] = compound: CN(C)CC1=CC(=CC=C1)N=C(C2=CC=CC=C2)C3=C(NC4=C3C=CC(=C4)C(=O)N(C)C)O
# Procedure, shortened: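 Cells of lung cancer lines were placed in 1536-well plates and kept overnight at 37 °C. Pinning then delivered five library-drug doses (not always all listed), spaced by √10, onto plates anchored with vehicle, and the cells were left 5 days without changing medium. One step fixed, permeabilised and stained them with Hoechst, and MetaXpress counted nuclei in 4× images. Viability, as a median over plates, is treated-well nuclei divided by vehicle-well nuclei, with acceptance only at control CV below 25% and at least one doubling.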
cell line,measurement,setting,value
Calu-6,relative viability,[1]; first compound 0.08 µM,0.899
same,relative viability,[1]; first compound 0.253 µM,0.872
same,relative viability,[1]; first compound 0.8 µM,0.932
same,relative viability,[1]; first compound 2.53 µM,0.877
same,relative viability,[1]; first compound 8 µM,0.852
same,relative viability,[2]; first compound 0.08 µM,0.815
same,relative viability,[2]; first compound 0.253 µM,0.831
same,relative viability,[2]; first compound 0.8 µM,0.963
same,relative viability,[2]; first compound 2.53 µM,0.888
same,relative viability,[2]; first compound 8 µM,0.928
same,relative viability,[3]; first compound 0.08 µM,1.02
same,relative viability,[3]; first compound 0.253 µM,1.06
same,relative viability,[3]; first compound 0.8 µM,1.05
same,relative viability,[3]; first compound 2.53 µM,1.13
same,relative viability,[3]; first compound 8 µM,1.06
same,relative viability,[4]; first compound 0.08 µM,0.951
same,relative viability,[4]; first compound 0.253 µM,0.877
same,relative viability,[4]; first compound 0.8 µM,0.989
same,relative viability,[4]; first compound 2.53 µM,0.911
same,relative viability,[4]; first compound 8 µM,0.885
same,relative viability,[5]; first compound 0.08 µM,0.558
same,relative viability,[5]; first compound 0.253 µM,0.549
same,relative viability,[5]; first compound 0.8 µM,0.571
same,relative viability,[5]; first compound 2.53 µM,0.565
same,relative viability,[5]; first compound 8 µM,0.63
same,relative viability,[6]; first compound 0.08 µM,0.758
same,relative viability,[6]; first compound 0.253 µM,0.749
same,relative viability,[6]; first compound 0.8 µM,0.762
same,relative viability,[6]; first compound 2.53 µM,0.814
same,relative viability,[6]; first compound 8 µM,0.859
same,relative viability,[7]; first compound 0.08 µM,0.923
same,relative viability,[7]; first compound 0.253 µM,0.882
same,relative viability,[7]; first compound 0.8 µM,0.948
same,relative viability,[7]; first compound 2.53 µM,0.906
same,relative viability,[7]; first compound 8 µM,0.929
same,relative viability,[8]; first compound 0.08 µM,1.05
same,relative viability,[8]; first compound 0.253 µM,1.11
same,relative viability,[8]; first compound 0.8 µM,1.06
same,relative viability,[8]; first compound 2.53 µM,0.971
same,relative viability,[8]; first compound 8 µM,0.93
same,relative viability,[9]; first compound 0.08 µM,1.13
same,relative viability,[9]; first compound 0.253 µM,1.01
same,relative viability,[9]; first compound 0.8 µM,1.02
same,relative viability,[9]; first compound 2.53 µM,1.07
same,relative viability,[9]; first compound 8 µM,1.03
same,relative viability,[10]; 0.08 µM,1.1
same,relative viability,[10]; 0.253 µM,1.05
same,relative viability,[10]; 0.8 µM,1.01
same,relative viability,[10]; 2.53 µM,0.986
same,relative viability,[10]; 8 µM,0.977
EBC-1,relative viability,[1]; first compound 0.08 µM,0.441
same,relative viability,[1]; first compound 0.253 µM,0.456
same,relative viability,[1]; first compound 0.8 µM,0.416
same,relative viability,[1]; first compound 2.53 µM,0.365
same,relative viability,[1]; first compound 8 µM,0.318
same,relative viability,[2]; first compound 0.08 µM,0.459
same,relative viability,[2]; first compound 0.253 µM,0.411
same,relative viability,[2]; first compound 0.8 µM,0.539
same,relative viability,[2]; first compound 2.53 µM,0.522
same,relative viability,[2]; first compound 8 µM,0.518
same,relative viability,[3]; first compound 0.08 µM,0.551
same,relative viability,[3]; first compound 0.253 µM,0.632
same,relative viability,[3]; first compound 0.8 µM,0.605
same,relative viability,[3]; first compound 2.53 µM,0.737
same,relative viability,[3]; first compound 8 µM,0.598
same,relative viability,[4]; first compound 0.08 µM,1.02
same,relative viability,[4]; first compound 0.253 µM,0.964
same,relative viability,[4]; first compound 0.8 µM,1.05
same,relative viability,[4]; first compound 2.53 µM,1
same,relative viability,[4]; first compound 8 µM,1.08
same,relative viability,[5]; first compound 0.08 µM,0.785
same,relative viability,[5]; first compound 0.253 µM,0.732
same,relative viability,[5]; first compound 0.8 µM,0.772
same,relative viability,[5]; first compound 2.53 µM,0.744
same,relative viability,[5]; first compound 8 µM,0.845
same,relative viability,[6]; first compound 0.08 µM,0.186
same,relative viability,[6]; first compound 0.253 µM,0.212
same,relative viability,[6]; first compound 0.8 µM,0.21
same,relative viability,[6]; first compound 2.53 µM,0.184
same,relative viability,[6]; first compound 8 µM,0.196
same,relative viability,[7]; first compound 0.08 µM,0.0943
same,relative viability,[7]; first compound 0.253 µM,0.112
same,relative viability,[7]; first compound 0.8 µM,0.0994
same,relative viability,[7]; first compound 2.53 µM,0.103
same,relative viability,[7]; first compound 8 µM,0.107
same,relative viability,[8]; first compound 0.08 µM,0.958
same,relative viability,[8]; first compound 0.253 µM,0.891
same,relative viability,[8]; first compound 0.8 µM,1.06
same,relative viability,[8]; first compound 2.53 µM,0.917
same,relative viability,[8]; first compound 8 µM,0.816
same,relative viability,[9]; first compound 0.08 µM,0.223
same,relative viability,[9]; first compound 0.253 µM,0.248
same,relative viability,[9]; first compound 0.8 µM,0.227
same,relative viability,[9]; first compound 2.53 µM,0.198
same,relative viability,[9]; first compound 8 µM,0.225
same,relative viability,[10]; 0.08 µM,1.02
same,relative viability,[10]; 0.253 µM,0.958
same,relative viability,[10]; 0.8 µM,1.08
same,relative viability,[10]; 2.53 µM,0.985
same,relative viability,[10]; 8 µM,1.1
